From ChEMBL document CHEMBL1201862, “PubChem BioAssay data set” (2004)
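Compound exposure: 48 hours, 5 concentrations, 96-well plates. Here, GI50 denotes the concentration required for 50% inhibition of growth.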 Calls of active or inactive are those of the source. No stated cut-off is given here; in the data, active = GI50 up to about 1.1 µM and inactive = higher.

Tests used:
Assay in all cases: growth of human tumour cells (NCI), 48 h
UACC-62 = test system: UACC-62
HL-60 = test system: HL-60
ACHN = test system: ACHN
HCC 2998 = test system: HCC 2998
UO-31 = test system: UO-31
SNB-19 = test system: SNB-19
A549 = test system: A549
CCRF-CEM = test system: CCRF-CEM
OVCAR-8 = test system: OVCAR-8
RXF 393 = test system: RXF 393
786-0 = test system: 786-0
SK-MEL-28 = test system: SK-MEL-28
OVCAR-3 = test system: OVCAR-3
M14 = test system: M14
TK-10 = test system: TK-10
Malme-3M = test system: Malme-3M
SF-539 = test system: SF-539

Measured: GI50

c1cc(N(CCn2cccn2)CCn2cccn2)cc(N(CCn2cccn2)CCn2cccn2)c1
inactive: UACC-62 > 100 µM | HL-60 > 100 µM | ACHN > 100 µM | HCC 2998 > 100 µM | UO-31 > 100 µM | SNB-19 > 100 µM | A549 > 100 µM | CCRF-CEM > 100 µM | OVCAR-8 > 100 µM | RXF 393 > 100 µM | 786-0 > 100 µM | SK-MEL-28 > 100 µM | OVCAR-3 > 100 µM | M14 > 100 µM | TK-10 > 100 µM

Cc1ccc(S(=O)(=O)N(/N=C(\N)Oc2ccc(Cl)cc2)C(=N)Oc2ccc(Cl)cc2)cc1
inactive: Malme-3M > 100 µM | UACC-62 > 100 µM | HL-60 > 100 µM | ACHN > 100 µM | HCC 2998 > 100 µM | UO-31 > 100 µM | SNB-19 > 100 µM | A549 > 100 µM | CCRF-CEM > 100 µM | OVCAR-8 > 100 µM | SF-539 > 100 µM | RXF 393 74.1 µM | 786-0 > 100 µM | SK-MEL-28 > 100 µM | OVCAR-3 > 100 µM | M14 > 100 µM | TK-10 > 100 µM

CC(=O)O[C@]12CCCCC1C1(O)C(O)CCCCC12 (some centres not stated)
inactive: Malme-3M > 100 µM | UACC-62 > 100 µM | HL-60 > 100 µM | ACHN 76 µM | UO-31 > 100 µM | SNB-19 > 100 µM | A549 > 100 µM | CCRF-CEM > 100 µM | OVCAR-8 > 100 µM | RXF 393 > 100 µM | 786-0 > 100 µM | SK-MEL-28 > 100 µM | M14 > 100 µM | TK-10 > 100 µM

Oc1ccncc1-c1cnccc1O
inactive: Malme-3M > 100 µM | UACC-62 > 100 µM | HL-60 > 100 µM | ACHN > 100 µM | HCC 2998 > 100 µM | UO-31 > 100 µM | A549 > 100 µM | CCRF-CEM > 100 µM | OVCAR-8 > 100 µM | SF-539 > 100 µM | RXF 393 > 100 µM | 786-0 > 100 µM | SK-MEL-28 > 100 µM | OVCAR-3 > 100 µM | M14 > 100 µM | TK-10 > 100 µM

Cc1cc(C)cc(NC(=O)CCC(=O)C2CCC/C2=N\NC(=O)C(=O)NN)c1 (configuration not stated)
inactive: Malme-3M > 100 µM | UACC-62 > 100 µM | HL-60 > 100 µM | ACHN > 100 µM | HCC 2998 > 100 µM | UO-31 > 100 µM | SNB-19 > 100 µM | A549 > 100 µM | CCRF-CEM > 100 µM | OVCAR-8 > 100 µM | SF-539 > 100 µM | RXF 393 > 100 µM | 786-0 > 100 µM | SK-MEL-28 > 100 µM | OVCAR-3 > 100 µM | M14 > 100 µM | TK-10 > 100 µM

N#CC(=C1C=CC(=NO)C=C1)c1ccc(Cl)cc1
inactive: Malme-3M 21.8 µM | UACC-62 3.71 µM | HL-60 2.36 µM | ACHN 10.6 µM | HCC 2998 17.5 µM | UO-31 11.5 µM | SNB-19 42.4 µM | A549 18.7 µM | CCRF-CEM 2.69 µM | OVCAR-8 19.1 µM | SF-539 7.33 µM | RXF 393 16 µM | 786-0 2.29 µM | SK-MEL-28 15.7 µM | OVCAR-3 3.52 µM | M14 16.4 µM | TK-10 24.7 µM

CC1(C)CC(N2CCN(C3CC(C)(C)NC(C)(C)C3)CC2)CC(C)(C)N1
inactive: UACC-62 > 100 µM | HL-60 > 100 µM | ACHN > 100 µM | HCC 2998 > 100 µM | UO-31 > 100 µM | SNB-19 > 100 µM | A549 > 100 µM | CCRF-CEM > 100 µM | OVCAR-8 > 100 µM | SF-539 > 100 µM | RXF 393 > 100 µM | 786-0 > 100 µM | SK-MEL-28 > 100 µM | OVCAR-3 > 100 µM | M14 > 100 µM | TK-10 > 100 µM

Cc1ccc(S(=O)(=O)c2ccc(C)cc2[N+](=O)[O-])c([N+](=O)[O-])c1
inactive: Malme-3M > 100 µM | UACC-62 > 100 µM | ACHN 44.9 µM | HCC 2998 > 100 µM | UO-31 > 100 µM | SNB-19 > 100 µM | A549 > 100 µM | CCRF-CEM > 100 µM | OVCAR-8 > 100 µM | SF-539 > 100 µM | RXF 393 > 100 µM | 786-0 > 100 µM | SK-MEL-28 > 100 µM | OVCAR-3 > 100 µM | M14 > 100 µM | TK-10 > 100 µM

C#CCN(Cc1ccc2nc(-c3ccccc3)c(N)nc2c1)c1cc(OC)c(OC)c(OC)c1
inactive: Malme-3M 26.9 µM | UACC-62 20 µM | HL-60 17.9 µM | ACHN 22.8 µM | HCC 2998 57.4 µM | UO-31 23.1 µM | SNB-19 40.5 µM | A549 23.2 µM | CCRF-CEM 17.9 µM | OVCAR-8 30.4 µM | SF-539 36.6 µM | RXF 393 25.5 µM | 786-0 44.7 µM | SK-MEL-28 37.1 µM | OVCAR-3 15.4 µM | M14 25.5 µM | TK-10 46.1 µM

C=C(COC(C)=O)CC(OC(C)=O)c1ccccc1 (configuration not stated)
inactive: UACC-62 > 100 µM | HL-60 > 100 µM | ACHN > 100 µM | HCC 2998 > 100 µM | UO-31 > 100 µM | SNB-19 > 100 µM | A549 > 100 µM | CCRF-CEM 68.4 µM | OVCAR-8 > 100 µM | SF-539 > 100 µM | RXF 393 > 100 µM | 786-0 > 100 µM | SK-MEL-28 > 100 µM | OVCAR-3 > 100 µM | M14 > 100 µM | TK-10 > 100 µM

COc1cc2c3cc1Oc1c(OC)c(OC)cc4c1[C@@H](Cc1ccc(O)c(c1)Oc1ccc(cc1)C[C@@H]3N(C)CC2)N(C)CC4.c1ccccc1
inactive: Malme-3M 17.2 µM | UACC-62 16 µM | HL-60 10.2 µM | ACHN 17.3 µM | HCC 2998 7.93 µM | UO-31 15.7 µM | SNB-19 20.4 µM | A549 22.5 µM | CCRF-CEM 17.5 µM | OVCAR-8 16.8 µM | SF-539 3.71 µM | RXF 393 12.4 µM | 786-0 12.8 µM | SK-MEL-28 15.3 µM | OVCAR-3 14.4 µM | M14 4.61 µM | TK-10 17.8 µM

CCOC(=O)/C(=C/c1cc(OC)ccc1OC)CC(=O)O
inactive: Malme-3M > 31.6 µM | UACC-62 > 100 µM | HL-60 > 31.6 µM | ACHN > 100 µM | HCC 2998 > 31.6 µM | UO-31 > 100 µM | SNB-19 > 100 µM | A549 > 100 µM | CCRF-CEM > 31.6 µM | OVCAR-8 > 100 µM | SF-539 > 100 µM | RXF 393 > 100 µM | 786-0 > 31.6 µM | SK-MEL-28 > 100 µM | OVCAR-3 > 100 µM | M14 > 100 µM | TK-10 > 100 µM

O=C1NC(=S)NC(=O)C1=Cc1ccc([N+](=O)[O-])o1
inactive: Malme-3M 14.7 µM | UACC-62 19.4 µM | HL-60 27.1 µM | ACHN 18.4 µM | HCC 2998 60.7 µM | UO-31 39.2 µM | SNB-19 > 100 µM | A549 > 100 µM | CCRF-CEM 23.9 µM | OVCAR-8 29.4 µM | SF-539 22.9 µM | RXF 393 19.3 µM | 786-0 19.3 µM | SK-MEL-28 25 µM | M14 15.7 µM | TK-10 61 µM

COc1cc(/C=N/N=C(\N)NO)c(Cl)cc1O
inactive: Malme-3M 68.7 µM | UACC-62 47.1 µM | ACHN 42.5 µM | HCC 2998 61.5 µM | UO-31 94 µM | SNB-19 > 100 µM | A549 38 µM | CCRF-CEM > 100 µM | OVCAR-8 49.5 µM | SF-539 81.3 µM | RXF 393 81.5 µM | 786-0 46.6 µM | SK-MEL-28 38.5 µM

O=C1CC(c2ccccc2)=Nc2ccccc2N1
inactive: Malme-3M > 100 µM | UACC-62 > 100 µM | HL-60 34.5 µM | ACHN > 100 µM | HCC 2998 > 100 µM | UO-31 > 100 µM | SNB-19 > 100 µM | A549 > 100 µM | CCRF-CEM 65 µM | OVCAR-8 > 100 µM | SF-539 > 100 µM | RXF 393 > 100 µM | 786-0 > 100 µM | SK-MEL-28 > 100 µM | OVCAR-3 > 100 µM | M14 > 100 µM | TK-10 > 100 µM

COc1cc(C2C(Cl)C(=O)N2n2cnc3ccccc3c2=O)ccc1O (configuration not stated)
inactive: Malme-3M > 100 µM | UACC-62 60.8 µM | HL-60 > 10 µM | ACHN > 100 µM | HCC 2998 > 100 µM | UO-31 56.4 µM | SNB-19 > 100 µM | A549 > 100 µM | CCRF-CEM 80 µM | OVCAR-8 > 100 µM | RXF 393 67.6 µM | 786-0 > 100 µM | SK-MEL-28 88.7 µM | OVCAR-3 85.1 µM | M14 > 100 µM | TK-10 > 100 µM

C/C(=C\Cc1cc(O)ccc1O)CCc1c(C)cc(O)c(C=O)c1C [PANICEIN B3]
inactive: Malme-3M 21.3 µM | HL-60 34.6 µM | ACHN 17.5 µM | HCC 2998 43.2 µM | UO-31 23.5 µM | SNB-19 44.5 µM | A549 27.4 µM | OVCAR-8 17.1 µM | SF-539 18.5 µM | RXF 393 15.9 µM | 786-0 25.5 µM | SK-MEL-28 24 µM | OVCAR-3 24.9 µM | M14 23.5 µM | TK-10 34.8 µM
